Measurements published in ChEMBL document CHEMBL1201862, “PubChem BioAssay data set” (2004).
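A five-concentration, 48-hour dose response in 96-well plates underlies each endpoint, interpolated linearly between surrounding concentrations. GI50: concentration for 50% inhibition of growth.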 Activity calls are given as the source filed them. Rule as the data show it: active = GI50 up to about 1.1 µM and inactive = higher.

Key:
Test in all cases: inhibition of tumour cell growth, NCI panel, 48 h
UO-31 = test system: UO-31
M19-MEL = test system: M19-MEL
HCC 2998 = test system: HCC 2998
K562 = test system: K562
HOP-92 = test system: HOP-92
HL-60 = test system: HL-60
HOP-62 = test system: HOP-62
DMS-114 = test system: DMS-114
SR = test system: SR
UACC-257 = test system: UACC-257
M14 = test system: M14
SK-MEL-28 = test system: SK-MEL-28
CCRF-CEM = test system: CCRF-CEM
DLD-1 = test system: DLD-1
NCI-H226 = test system: NCI-H226
SNB-75 = test system: SNB-75
OVCAR-5 = test system: OVCAR-5
NCI-H522 = test system: NCI-H522
SF-539 = test system: SF-539
SN12C = test system: SN12C
SK-MEL-5 = test system: SK-MEL-5
OVCAR-8 = test system: OVCAR-8
Malme-3M = test system: Malme-3M
CAKI-1 = test system: CAKI-1
A549 = test system: A549
KM12 = test system: KM12
RPMI-8226 = test system: RPMI-8226
DMS-273 = test system: DMS-273
LOX IMVI = test system: LOX IMVI
IGROV-1 = test system: IGROV-1
SF-295 = test system: SF-295
NCI-H23 = test system: NCI-H23
SW-620 = test system: SW-620
HT-29 = test system: HT-29
OVCAR-4 = test system: OVCAR-4
MOLT-4 = test system: MOLT-4
SK-OV-3 = test system: SK-OV-3
UACC-62 = test system: UACC-62
RXF 393 = test system: RXF 393
U-251 = test system: U-251
OVCAR-3 = test system: OVCAR-3
HCT-15 = test system: HCT-15
TK-10 = test system: TK-10
SF-268 = test system: SF-268
SK-MEL-2 = test system: SK-MEL-2
ACHN = test system: ACHN
LXFL 529 = test system: LXFL 529
SNB-19 = test system: SNB-19
A498 = test system: A498
SNB-78 = test system: SNB-78
RXF 631 = test system: RXF 631
HCT-116 = test system: HCT-116
NCI-H460 = test system: NCI-H460
786-0 = test system: 786-0
KM-20L2 = test system: KM-20L2
COLO 205 = test system: COLO 205
EKVX = test system: EKVX

Compound: CCN1c2ccccc2-c2c3c1cc(C)cc3c1ccccc1[n+]2CC
- GI50 (UO-31): 7.13 µM (inactive)
- GI50 (M19-MEL): 0.36 µM (active)
- GI50 (HCC 2998): 0.811 µM (active)
- GI50 (K562): 0.323 µM (active)
- GI50 (HOP-92): 1.4 µM (inactive)
- GI50 (HL-60): 1.16 µM (inactive)
- GI50 (HOP-62): 2.04 µM (inactive)
- GI50 (DMS-114): 0.461 µM (active)
- GI50 (SR): 1.55 µM (inactive)
- GI50 (UACC-257): 0.437 µM (active)
- GI50 (M14): 1.69 µM (inactive)
- GI50 (SK-MEL-28): 1.19 µM (inactive)
- GI50 (CCRF-CEM): 0.621 µM (active)
- GI50 (DLD-1): 2.55 µM (inactive)
- GI50 (NCI-H226): 1.75 µM (inactive)
- GI50 (SNB-75): 0.798 µM (active)
- GI50 (OVCAR-5): 1.5 µM (inactive)
- GI50 (NCI-H522): 1.26 µM (inactive)
- GI50 (SF-539): 1.19 µM (inactive)
- GI50 (SN12C): 0.659 µM (active)
- GI50 (SK-MEL-5): 0.52 µM (active)
- GI50 (OVCAR-8): 0.427 µM (active)
- GI50 (Malme-3M): 1.15 µM (inactive)
- GI50 (CAKI-1): 2.26 µM (inactive)
- GI50 (A549): 2.4 µM (inactive)
- GI50 (KM12): 0.339 µM (active)
- GI50 (RPMI-8226): 0.466 µM (active)
- GI50 (DMS-273): 0.385 µM (active)
- GI50 (LOX IMVI): 0.386 µM (active)
- GI50 (IGROV-1): 1.66 µM (inactive)
- GI50 (SF-295): 0.78 µM (active)
- GI50 (NCI-H23): 1.32 µM (inactive)
- GI50 (SW-620): 1.11 µM (active)
- GI50 (HT-29): 1.41 µM (inactive)
- GI50 (OVCAR-4): 1.57 µM (inactive)
- GI50 (MOLT-4): 1.04 µM (active)
- GI50 (SK-OV-3): 1.83 µM (inactive)
- GI50 (UACC-62): 0.743 µM (active)
- GI50 (RXF 393): 2.96 µM (inactive)
- GI50 (U-251): 0.571 µM (active)
- GI50 (OVCAR-3): 0.476 µM (active)
- GI50 (HCT-15): 6.22 µM
- GI50 (TK-10): 2.56 µM (inactive)
- GI50 (SF-268): 0.522 µM (active)
- GI50 (SK-MEL-2): 1.21 µM (inactive)
- GI50 (ACHN): 2.16 µM (inactive)
- GI50 (LXFL 529): 0.384 µM (active)
- GI50 (SNB-19): 0.528 µM (active)
- GI50 (A498): 3.26 µM (inactive)
- GI50 (SNB-78): 2.64 µM (inactive)
- GI50 (RXF 631): 5.24 µM (inactive)
- GI50 (HCT-116): 0.644 µM (active)
- GI50 (NCI-H460): 1.23 µM (inactive)
- GI50 (786-0): 1.59 µM (inactive)

Compound: NC(=O)c1cc([N+](=O)[O-])cc([N+](=O)[O-])c1 [NITROMIDE]
- GI50 (UO-31): > 100 µM (inactive)
- GI50 (M19-MEL): 22.4 µM (inactive)
- GI50 (KM-20L2): > 100 µM (inactive)
- GI50 (K562): > 100 µM (inactive)
- GI50 (HOP-92): > 100 µM (inactive)
- GI50 (HL-60): 40.9 µM (inactive)
- GI50 (HOP-62): > 100 µM (inactive)
- GI50 (DMS-114): 38.5 µM (inactive)
- GI50 (SR): > 100 µM (inactive)
- GI50 (UACC-257): > 100 µM (inactive)
- GI50 (M14): > 100 µM (inactive)
- GI50 (SK-MEL-28): > 100 µM (inactive)
- GI50 (CCRF-CEM): > 100 µM (inactive)
- GI50 (DLD-1): > 100 µM (inactive)
- GI50 (NCI-H226): > 100 µM (inactive)
- GI50 (SNB-75): > 100 µM (inactive)
- GI50 (OVCAR-5): > 100 µM (inactive)
- GI50 (NCI-H522): > 100 µM (inactive)
- GI50 (SF-539): > 100 µM (inactive)
- GI50 (SN12C): > 100 µM (inactive)
- GI50 (SK-MEL-5): > 100 µM (inactive)
- GI50 (OVCAR-8): > 100 µM (inactive)
- GI50 (Malme-3M): 69.3 µM (inactive)
- GI50 (CAKI-1): > 100 µM (inactive)
- GI50 (A549): > 100 µM (inactive)
- GI50 (COLO 205): 30.3 µM (inactive)
- GI50 (KM12): > 100 µM (inactive)
- GI50 (RPMI-8226): > 100 µM (inactive)
- GI50 (DMS-273): > 100 µM (inactive)
- GI50 (LOX IMVI): > 100 µM (inactive)
- GI50 (IGROV-1): > 100 µM (inactive)
- GI50 (SF-295): > 100 µM (inactive)
- GI50 (NCI-H23): > 100 µM (inactive)
- GI50 (SW-620): > 100 µM (inactive)
- GI50 (HT-29): > 100 µM (inactive)
- GI50 (OVCAR-4): > 100 µM (inactive)
- GI50 (MOLT-4): > 100 µM (inactive)
- GI50 (SK-OV-3): > 100 µM (inactive)
- GI50 (UACC-62): 96.8 µM (inactive)
- GI50 (RXF 393): > 100 µM (inactive)
- GI50 (U-251): > 100 µM (inactive)
- GI50 (OVCAR-3): > 100 µM (inactive)
- GI50 (HCT-15): > 100 µM
- GI50 (TK-10): > 100 µM (inactive)
- GI50 (SF-268): > 100 µM (inactive)
- GI50 (EKVX): > 100 µM (inactive)
- GI50 (SK-MEL-2): > 100 µM (inactive)
- GI50 (ACHN): > 100 µM (inactive)
- GI50 (LXFL 529): > 100 µM (inactive)
- GI50 (SNB-19): > 100 µM (inactive)
- GI50 (A498): > 100 µM (inactive)
- GI50 (RXF 631): > 100 µM (inactive)
- GI50 (HCT-116): > 100 µM (inactive)
- GI50 (NCI-H460): > 100 µM (inactive)
- GI50 (786-0): > 100 µM (inactive)

Compound: OCCN1CCN(CCO)Cc2ccccc2OCCOc2ccccc2C1
- GI50 (UO-31): > 100 µM (inactive)
- GI50 (M19-MEL): > 100 µM (inactive)
- GI50 (KM-20L2): > 100 µM (inactive)
- GI50 (K562): > 100 µM (inactive)
- GI50 (HOP-92): > 100 µM (inactive)
- GI50 (HOP-62): > 100 µM (inactive)
- GI50 (DMS-114): > 100 µM (inactive)
- GI50 (SR): > 100 µM (inactive)
- GI50 (UACC-257): > 100 µM (inactive)
- GI50 (M14): > 100 µM (inactive)
- GI50 (SK-MEL-28): > 100 µM (inactive)
- GI50 (CCRF-CEM): > 100 µM (inactive)
- GI50 (DLD-1): > 100 µM (inactive)
- GI50 (NCI-H226): > 100 µM (inactive)
- GI50 (SNB-75): 33 µM (inactive)
- GI50 (OVCAR-5): > 100 µM (inactive)
- GI50 (NCI-H522): > 100 µM (inactive)
- GI50 (SF-539): > 100 µM (inactive)
- GI50 (SN12C): > 100 µM (inactive)
- GI50 (SK-MEL-5): > 100 µM (inactive)
- GI50 (OVCAR-8): > 100 µM (inactive)
- GI50 (Malme-3M): > 100 µM (inactive)
- GI50 (CAKI-1): > 100 µM (inactive)
- GI50 (A549): > 100 µM (inactive)
- GI50 (COLO 205): > 100 µM (inactive)
- GI50 (KM12): > 100 µM (inactive)
- GI50 (RPMI-8226): > 100 µM (inactive)
- GI50 (DMS-273): > 100 µM (inactive)
- GI50 (LOX IMVI): 29.8 µM (inactive)
- GI50 (IGROV-1): > 100 µM (inactive)
- GI50 (NCI-H23): > 100 µM (inactive)
- GI50 (SW-620): > 100 µM (inactive)
- GI50 (HT-29): 96.8 µM (inactive)
- GI50 (OVCAR-4): > 100 µM (inactive)
- GI50 (MOLT-4): > 100 µM (inactive)
- GI50 (SK-OV-3): > 100 µM (inactive)
- GI50 (RXF 393): > 100 µM (inactive)
- GI50 (U-251): > 100 µM (inactive)
- GI50 (OVCAR-3): > 100 µM (inactive)
- GI50 (HCT-15): > 100 µM
- GI50 (TK-10): > 100 µM (inactive)
- GI50 (SF-268): > 100 µM (inactive)
- GI50 (EKVX): > 100 µM (inactive)
- GI50 (SK-MEL-2): > 100 µM (inactive)
- GI50 (ACHN): > 100 µM (inactive)
- GI50 (LXFL 529): 64.4 µM (inactive)
- GI50 (SNB-19): > 100 µM (inactive)
- GI50 (A498): > 100 µM (inactive)
- GI50 (SNB-78): > 100 µM (inactive)
- GI50 (RXF 631): > 100 µM (inactive)
- GI50 (HCT-116): 51.6 µM (inactive)
- GI50 (NCI-H460): > 100 µM (inactive)
- GI50 (786-0): > 100 µM (inactive)
